Laboratory results taken from the supplement of paper PMC11821682.

Experiments:
Danio rerio embryo [1] = test: LEL embryonic photomotor response 24 hpf
Protocol: (§1)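 ZBEscreen: dechorionated Tropical 5D zebrafish embryos were exposed from 4 hpf in 96-well plates (1% DMSO, 28 °C). All compounds were first tested at 100 µM; hits were retested at 0.005-100 µM. Morphology and mortality were scored at 120 hpf and fitted as BMC10 (3-parameter log-logistic, extra risk). The embryonic photomotor response at 24 hpf and the larval photomotor response at 120 hpf are given as lowest effect levels (K-S test, p<0.01). NA = not significant up to 100 µM; NT = not tested.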

Danio rerio embryo [2] = test: BMC10 mortality 24-120 hpf; higher = less toxic
Protocol: as §1

Danio rerio embryo [3] = test: LEL larval photomotor response dark phase 120 hpf
Protocol: as §1

Danio rerio embryo [4] = test: BMC10 any morphological effect or mortality at 120 hpf; higher = less toxic
HL-60 = test: Cell Health Index (toxicity pseudo-probability over dose series) (index 0-1); higher = more cytotoxic / cell stress;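 note: HL-60 cells exposed 4 h at 37 °C to ten threefold dilutions spanning 5 nM to 100 µM, multiparametric flow cytometry features scored by machine-learning classification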

O=C(Nc1cc(C(F)(F)F)ccc1N1CCCCC1)c1ccncc1 [SRPIN340]
LEL embryonic photomotor response 24 hpf (Danio rerio embryo [1]): 33.3 µM | BMC10 mortality 24-120 hpf (Danio rerio embryo [2]): 10.3 µM | LEL larval photomotor response dark phase 120 hpf (Danio rerio embryo [3]): > 100 µM | BMC10 any morphological effect or mortality (Danio rerio embryo [4]): 0.68 µM | Cell Health Index (HL-60): 0.799

CN(C)CCCNC(=O)c1ccc(-c2cc(O)c3ncccc3c2)cc1 [ML-324]
LEL embryonic photomotor response 24 hpf (Danio rerio embryo [1]): 11.1 µM | BMC10 mortality 24-120 hpf (Danio rerio embryo [2]): 15.9 µM | LEL larval photomotor response dark phase 120 hpf (Danio rerio embryo [3]): > 100 µM | BMC10 any morphological effect or mortality (Danio rerio embryo [4]): 15.9 µM | Cell Health Index (HL-60): 0.537

COC(=O)C1=C(C)N=C(c2ncc(F)cc2F)NC1c1ccc(F)cc1Cl (racemic) [(±)-BAY 41-4109]
LEL embryonic photomotor response 24 hpf (Danio rerio embryo [1]): 11.1 µM | BMC10 mortality 24-120 hpf (Danio rerio embryo [2]): 12.6 µM | LEL larval photomotor response dark phase 120 hpf (Danio rerio embryo [3]): > 100 µM | BMC10 any morphological effect or mortality (Danio rerio embryo [4]): 8.25 µM | Cell Health Index (HL-60): 0.592

O=C1Nc2ccc(Cl)cc2[C@@](C#CC2CC2)(C(F)(F)F)O1 [Efavirenz]
LEL embryonic photomotor response 24 hpf (Danio rerio embryo [1]): 3.7 µM | BMC10 mortality 24-120 hpf (Danio rerio embryo [2]): 12 µM | LEL larval photomotor response dark phase 120 hpf (Danio rerio embryo [3]): > 100 µM | BMC10 any morphological effect or mortality (Danio rerio embryo [4]): 1.3 µM | Cell Health Index (HL-60): 0.874

C[C@H]1[C@H](OC(=O)CCC(=O)O)O[C@@H]2O[C@@]3(C)CC[C@H]4[C@H](C)CC[C@@H]1[C@@]24OO3 [Artesunate]
LEL embryonic photomotor response 24 hpf (Danio rerio embryo [1]): > 100 µM | BMC10 mortality 24-120 hpf (Danio rerio embryo [2]): 9.08 µM | LEL larval photomotor response dark phase 120 hpf (Danio rerio embryo [3]): > 100 µM | BMC10 any morphological effect or mortality (Danio rerio embryo [4]): 7.91 µM | Cell Health Index (HL-60): 0.146

COC(=O)C[C@](O)(CCC(C)(C)O)C(=O)O[C@@H]1C(OC)=C[C@]23CCCN2CCc2cc4c(cc2[C@H]13)OCO4 [Harringtonine]
LEL embryonic photomotor response 24 hpf (Danio rerio embryo [1]): 33.3 µM | BMC10 mortality 24-120 hpf (Danio rerio embryo [2]): 26.6 µM | LEL larval photomotor response dark phase 120 hpf (Danio rerio embryo [3]): > 100 µM | BMC10 any morphological effect or mortality (Danio rerio embryo [4]): 10.8 µM | Cell Health Index (HL-60): 0.376

NC(=O)c1ccc(I)c([N+](=O)[O-])c1 [Iniparib]
LEL embryonic photomotor response 24 hpf (Danio rerio embryo [1]): 33.3 µM | BMC10 mortality 24-120 hpf (Danio rerio embryo [2]): 33.9 µM | LEL larval photomotor response dark phase 120 hpf (Danio rerio embryo [3]): > 100 µM | BMC10 any morphological effect or mortality (Danio rerio embryo [4]): 10.2 µM | Cell Health Index (HL-60): 0.283

COc1c(C)c2c(c(O)c1C/C=C(\C)CCC(=O)O)C(=O)OC2 [Mycophenolic acid]
LEL embryonic photomotor response 24 hpf (Danio rerio embryo [1]): 11.1 µM | BMC10 mortality 24-120 hpf (Danio rerio embryo [2]): 1.93 µM | LEL larval photomotor response dark phase 120 hpf (Danio rerio embryo [3]): > 100 µM | BMC10 any morphological effect or mortality (Danio rerio embryo [4]): 1.23 µM | Cell Health Index (HL-60): 0.204

O=C1c2cccc(O)c2C(=O)c2c(O)cc(CO)cc21 [Aloe-emodin]
LEL embryonic photomotor response 24 hpf (Danio rerio embryo [1]): 3.7 µM | BMC10 mortality 24-120 hpf (Danio rerio embryo [2]): 17.1 µM | LEL larval photomotor response dark phase 120 hpf (Danio rerio embryo [3]): > 100 µM | BMC10 any morphological effect or mortality (Danio rerio embryo [4]): 9.08 µM | Cell Health Index (HL-60): 0.198

NC(=O)c1cccc(-c2cc(Nc3ccc(OC(F)(F)F)cc3)ncn2)c1 [GNF-2]
LEL embryonic photomotor response 24 hpf (Danio rerio embryo [1]): 11.1 µM | BMC10 mortality 24-120 hpf (Danio rerio embryo [2]): 4.78 µM | LEL larval photomotor response dark phase 120 hpf (Danio rerio embryo [3]): > 100 µM | BMC10 any morphological effect or mortality (Danio rerio embryo [4]): 3.7 µM | Cell Health Index (HL-60): 0.869

C/C1=C/CC/C(C)=C/CC(C)(C)/C=C/C1=O [Zerumbone]
LEL embryonic photomotor response 24 hpf (Danio rerio embryo [1]): 11.1 µM | BMC10 mortality 24-120 hpf (Danio rerio embryo [2]): 9.91 µM | LEL larval photomotor response dark phase 120 hpf (Danio rerio embryo [3]): > 100 µM | BMC10 any morphological effect or mortality (Danio rerio embryo [4]): 2.66 µM | Cell Health Index (HL-60): 0.238

CN1CCN(CCCN2c3ccccc3Sc3ccc(C(F)(F)F)cc32)CC1.Cl.Cl [Trifluoperazine]
LEL embryonic photomotor response 24 hpf (Danio rerio embryo [1]): 11.1 µM | BMC10 mortality 24-120 hpf (Danio rerio embryo [2]): 4.13 µM | LEL larval photomotor response dark phase 120 hpf (Danio rerio embryo [3]): > 100 µM | BMC10 any morphological effect or mortality (Danio rerio embryo [4]): 3.55 µM | Cell Health Index (HL-60): 0.898

Oc1c(Cl)cc(Cl)cc1Sc1cc(Cl)cc(Cl)c1O [Bithionol]
LEL embryonic photomotor response 24 hpf (Danio rerio embryo [1]): 3.7 µM | BMC10 mortality 24-120 hpf (Danio rerio embryo [2]): 0.795 µM | LEL larval photomotor response dark phase 120 hpf (Danio rerio embryo [3]): > 100 µM | BMC10 any morphological effect or mortality (Danio rerio embryo [4]): 0.577 µM | Cell Health Index (HL-60): 0.826

CN1CCN(C(c2ccc(Cl)cc2)c2ccc(Cl)cc2)CC1 [1-[bis(4-chlorophenyl)methyl]-4-methyl-piperazine]
LEL embryonic photomotor response 24 hpf (Danio rerio embryo [1]): 11.1 µM | BMC10 mortality 24-120 hpf (Danio rerio embryo [2]): 16.1 µM | LEL larval photomotor response dark phase 120 hpf (Danio rerio embryo [3]): > 100 µM | BMC10 any morphological effect or mortality (Danio rerio embryo [4]): 12.6 µM | Cell Health Index (HL-60): 0.934

c1ccc(CNc2nc(NCc3ccccc3)c3ccccc3n2)cc1 [DBeQ]
LEL embryonic photomotor response 24 hpf (Danio rerio embryo [1]): 1.23 µM | BMC10 mortality 24-120 hpf (Danio rerio embryo [2]): 1.31 µM | LEL larval photomotor response dark phase 120 hpf (Danio rerio embryo [3]): > 100 µM | BMC10 any morphological effect or mortality (Danio rerio embryo [4]): 1.15 µM | Cell Health Index (HL-60): 0.929

CCCCCCC(=O)CCCCCC/C=C/C[C@@H](O)[C@H](O)[C@@](N)(CO)C(=O)O [Myriocin]
LEL embryonic photomotor response 24 hpf (Danio rerio embryo [1]): > 100 µM | BMC10 mortality 24-120 hpf (Danio rerio embryo [2]): 1.46 µM | LEL larval photomotor response dark phase 120 hpf (Danio rerio embryo [3]): > 100 µM | BMC10 any morphological effect or mortality (Danio rerio embryo [4]): 1.03 µM | Cell Health Index (HL-60): 0.324

O=c1c(O)c(-c2ccccc2)oc2cc(O)cc(O)c12 [Galangin]
LEL embryonic photomotor response 24 hpf (Danio rerio embryo [1]): 100 µM | BMC10 mortality 24-120 hpf (Danio rerio embryo [2]): 32.8 µM | LEL larval photomotor response dark phase 120 hpf (Danio rerio embryo [3]): > 100 µM | BMC10 any morphological effect or mortality (Danio rerio embryo [4]): 12.3 µM | Cell Health Index (HL-60): 0.411

CN1CCN(C(c2ccccc2)c2ccc(Cl)cc2)CC1.Cl (configuration not stated) [Chlorcyclizine]
LEL embryonic photomotor response 24 hpf (Danio rerio embryo [1]): 11.1 µM | BMC10 mortality 24-120 hpf (Danio rerio embryo [2]): 15.9 µM | LEL larval photomotor response dark phase 120 hpf (Danio rerio embryo [3]): > 100 µM | BMC10 any morphological effect or mortality (Danio rerio embryo [4]): 8.84 µM | Cell Health Index (HL-60): 0.478

CCCCCCCCCCCCCCCC[n+]1ccn(Cc2ccccc2)c1C.[I-] [NH125 parent]
LEL embryonic photomotor response 24 hpf (Danio rerio embryo [1]): 33.3 µM | BMC10 mortality 24-120 hpf (Danio rerio embryo [2]): 8.53 µM | LEL larval photomotor response dark phase 120 hpf (Danio rerio embryo [3]): > 100 µM | BMC10 any morphological effect or mortality (Danio rerio embryo [4]): 7.19 µM | Cell Health Index (HL-60): 0.949

CC(C)(C)Oc1cccc2nc(N)nc(N)c12 [HZ-1157]
LEL embryonic photomotor response 24 hpf (Danio rerio embryo [1]): 33.3 µM | BMC10 mortality 24-120 hpf (Danio rerio embryo [2]): 16.1 µM | LEL larval photomotor response dark phase 120 hpf (Danio rerio embryo [3]): > 100 µM | BMC10 any morphological effect or mortality (Danio rerio embryo [4]): > 100 µM | Cell Health Index (HL-60): 0.463

O=C(Nc1cccc(NC(=O)c2cccc(O)c2O)c1)c1cccc(O)c1O [MST-312]
LEL embryonic photomotor response 24 hpf (Danio rerio embryo [1]): 100 µM | BMC10 mortality 24-120 hpf (Danio rerio embryo [2]): 74.3 µM | LEL larval photomotor response dark phase 120 hpf (Danio rerio embryo [3]): > 100 µM | BMC10 any morphological effect or mortality (Danio rerio embryo [4]): 65.3 µM | Cell Health Index (HL-60): 0.688

O=C1NC(=O)c2c1c1c3ccccc3[nH]c1c1[nH]c3ccccc3c21 [Arcyriaflavin A]
LEL embryonic photomotor response 24 hpf (Danio rerio embryo [1]): > 100 µM | LEL larval photomotor response dark phase 120 hpf (Danio rerio embryo [3]): > 100 µM | BMC10 any morphological effect or mortality (Danio rerio embryo [4]): 1.1 µM | Cell Health Index (HL-60): 0.393

Ic1cccc(/C=N/Nc2nc(N3CCOCC3)nc(N(c3ccccc3)c3ccccc3)n2)c1 [Vacuolin-1]
LEL embryonic photomotor response 24 hpf (Danio rerio embryo [1]): 33.3 µM | LEL larval photomotor response dark phase 120 hpf (Danio rerio embryo [3]): > 100 µM | BMC10 any morphological effect or mortality (Danio rerio embryo [4]): > 100 µM | Cell Health Index (HL-60): 0.271

O=C(NCc1ccco1)c1ccc2c(c1)N(Cc1c(F)cccc1Cl)C(=O)CS2 [G10]
LEL embryonic photomotor response 24 hpf (Danio rerio embryo [1]): 11.1 µM | LEL larval photomotor response dark phase 120 hpf (Danio rerio embryo [3]): > 100 µM | BMC10 any morphological effect or mortality (Danio rerio embryo [4]): > 100 µM | Cell Health Index (HL-60): 0.311
